Experimental data from patent US20250120932A1, “PHARMACEUTICAL COMPOSITION” (NEUROPRO THERAPEUTICS, INC., priority 2021, published 2025).
Several values for one entry are separate records, joined by “and”; a condition that tells them apart may be missing. Equal entries are not always repeated. Where two headings read alike, the source gives them in different places.

Assay: Crossover pharmacokinetic study of Bumetanide Dibenzylamide formulations (IN, SL, IM, PO, SC, IR) in Beagle dogs, plasma LC-MS/MS
Type: in vivo
Conditions: for half-life: read-out: t½ (converted)
Protocol: Male and female Beagle dogs are assigned to two groups with 2 males and 2 females in each group. The study is conducted in 3 legs with Leg 1 consisting of IM and SL administration, Leg 2 consisting of IN and PO administration, and Leg 3 consisting of SC and IR administration.
During intranasal administration, the composition is administered by gently tilting the animals head back and the intranasal dose is delivered via a syringe and atomizer. During sublingual administration, the composition is administered via a quick dissolving tablet. The tablet is placed in the sublingual space and the mouth held shut for approximately 60-90 seconds. After one minute, the mouth of the animal is opened to confirm that the tablet has fully dissolved. During intramuscular administration, the composition is administered into the bicep femoris (rear thigh). The dose site is gently shaved prior to dosing. A syringe with a 25 g needle is utilized. During oral administration, the composition is administered via three capsules placed at the back of the animal's mouth and the placement is followed by a 10 mL drinking water flush to assure that the animal swallowed the capsules. During subcutaneous administration, the composition is administered into the dorsal subcutaneous space directly at the scruff of the neck of the animal. The dose site is gently shaved prior to dosing. A syringe with a 25 g needle is utilized. During intrarectal administration, the composition is administered by gently placing a 1 cc syringe in the rectum of the animal.
All animals are fasted for approximately 12 hours prior to dosing. Animals are fed four hours post dosing with water offered ad libitum throughout the study. All animals completed the study. […] Blood and urine samples are collected out to 24 hours.
Blood sample are collected from the jugular vein, or other suitable vessel via direct venipuncture, placed into a chilled tube containing K2EDTA as the anticoagulant, and inverted several times to mix. Blood samples are kept on wet ice until centrifugation.
The assay is verified with respect to standard bioanalytical methodology including acceptable accuracy and precision based upon quality control sample analysis and results. The range of the method for both analytes is from about 0.250 ng/ml to about 250 ng/mL.
The PK parameters defined in Table 10 are calculated by non-compartmental methods using individual animal concentration-time data. […] Nominal blood sampling times are used in the analysis. […] Individual below quantitation limits (BQL) results are set to zero for all calculations. No animals are excluded from the analysis. In one aspect, non-compartmental pharmacokinetic analysis provides observed or calculated values of Cmax, Tmax, and AUClast for all animals and estimates of AUCinf and CL/F for those animals where a terminal phase half-life (t1/2) could be estimated.

[1] = both sexes, Beagle, dog, plasma, po, 30 mg, PO capsules
[2] = both sexes, Beagle, dog, plasma, sc, 15 mg

**Q.** With `CCCCNc1cc(C(=O)N(Cc2ccccc2)Cc2ccccc2)cc(S(N)(=O)=O)c1Oc1ccccc1` [Bumetanide Dibenzylamide, N, N-dibenzyl 3-aminosulfonyl-5-butylamino-4-phenoxybenzamide] as the molecule, how does the AUCinf (IN, 15 mg) read?
**A.** Its AUCinf is 234 ng·h/mL and 224 ng·h/mL and 164 ng·h/mL and 221 ng·h/mL.

**Q.** What about the CL/F (IN, 15 mg) of the same molecule?
**A.** The CL/F was 64.1 L/h and 66.8 L/h and 91.5 L/h and 67.7 L/h.

**Q.** What about the “Plasma Bumetanide Dibenzylamide concentration” value (IN, 15 mg, 24 h) of the same molecule?
**A.** Its value is 3.15 ng/mL and 2.07 ng/mL and 1.59 ng/mL.

**Q.** What about the “Plasma Bumetanide Dibenzylamide concentration” value (IN, 15 mg, 24 h, mean) of the same molecule?
**A.** The value was 2.31 ng/mL.

**Q.** What about the CL/F (IN, 15 mg, mean) of the same molecule?
**A.** The CL/F was 72.5 L/h.

**Q.** What about the “Mean concentrations of Bumetanide Dibenzylamide” value (IR, 30 mg, at all times after dosing) of the same molecule?
**A.** Its value is “less than 10 ng/mL”.

**Q.** And the AUCinf (PO capsules, 30 mg)?
**A.** The AUCinf was 980 ng·h/mL and 698 ng·h/mL and 666 ng·h/mL and 910 ng·h/mL.

**Q.** And the AUClast (PO capsules, 30 mg)?
**A.** Its AUClast is 675 ng·h/mL and 639 ng·h/mL and 893 ng·h/mL.

**Q.** What about the CL/F (PO capsules, 30 mg) of the same molecule?
**A.** The CL/F was 30.6 L/h and 43.0 L/h and 45.0 L/h and 33.0 L/h.

**Q.** What about the Cmax (PO capsules, 30 mg) of the same molecule?
**A.** The Cmax was 280 ng/mL and 158 ng/mL and 175 ng/mL and 259 ng/mL.

**Q.** What about the t½ (PO capsules, 30 mg) of the same molecule?
**A.** Its t½ is 5.62 h and 6.79 h and 5.10 h.

**Q.** And the “Plasma Bumetanide Dibenzylamide concentration” value (PO capsules, 30 mg, 2 h)?
**A.** The value was 280 ng/mL and 158 ng/mL and 175 ng/mL.

**Q.** And the “Plasma Bumetanide Dibenzylamide concentration” value (PO capsules, 30 mg, 2 h, mean)?
**A.** The value was 218 ng/mL.

**Q.** And the “Plasma Bumetanide Dibenzylamide concentration” value (PO capsules, 30 mg, 4 h)?
**A.** The value was 85.3 ng/mL and 68.7 ng/mL and 56.9 ng/mL.

**Q.** And the “Plasma Bumetanide Dibenzylamide concentration” value (PO capsules, 30 mg, 4 h, mean)?
**A.** The value was 76.7 ng/mL.

**Q.** And the “Plasma Bumetanide Dibenzylamide concentration” value (PO capsules, 30 mg, 8 h)?
**A.** Its value is 21.2 ng/mL and 21.9 ng/mL and 15.7 ng/mL.

**Q.** And the “Plasma Bumetanide Dibenzylamide concentration” value (PO capsules, 30 mg, 8 h, mean)?
**A.** The value was 20.1 ng/mL.

**Q.** What about the “Plasma Bumetanide Dibenzylamide concentration” value (PO capsules, 30 mg, 12 h) of the same molecule?
**A.** The value was 8.65 ng/mL and 10.5 ng/mL and 7.91 ng/mL.

**Q.** What about the “Plasma Bumetanide Dibenzylamide concentration” value (PO capsules, 30 mg, 12 h, mean) of the same molecule?
**A.** The value was 9.34 ng/mL.

**Q.** And the “Plasma Bumetanide Dibenzylamide concentration” value (PO capsules, 30 mg, 24 h)?
**A.** The value was 2.86 ng/mL and 2.84 ng/mL and 2.83 ng/mL.

**Q.** What about the “Plasma Bumetanide Dibenzylamide concentration” value (PO capsules, 30 mg, 24 h, mean) of the same molecule?
**A.** The value was 2.71 ng/mL.

**Q.** What about the AUClast (PO capsules, 30 mg, mean) of the same molecule?
**A.** Its AUClast is 791 ng·h/mL.

**Q.** And the CL/F (PO capsules, 30 mg, mean)?
**A.** The CL/F was 37.9 L/h.

**Q.** What about the t½ (PO capsules, 30 mg, mean) of the same molecule?
**A.** The t½ was 5.85 h.

**Q.** What about the AUCinf (SC, 15 mg) of the same molecule?
**A.** The AUCinf was 286 ng·h/mL and 247 ng·h/mL and 158 ng·h/mL.

**Q.** What about the AUClast (SC, 15 mg) of the same molecule?
**A.** The AUClast was 79.8 ng·h/mL and 129 ng·h/mL and 91.3 ng·h/mL.

**Q.** And the CL/F (SC, 15 mg)?
**A.** Its CL/F is 52.4 L/h and 64.8 L/h and 60.7 L/h and 94.7 L/h.

**Q.** And the t½ (SC, 15 mg)?
**A.** Its t½ is 36.2 h and 22.2 h and 19.1 h.

**Q.** And the “Plasma Bumetanide Dibenzylamide concentration” value (SC, 15 mg, 0 h)?
**A.** Its value is 1.65 ng/mL and 2.39 ng/mL and 1.55 ng/mL.

**Q.** What about the “Plasma Bumetanide Dibenzylamide concentration” value (SC, 15 mg, 0 h, mean) of the same molecule?
**A.** Its value is 1.75 ng/mL.

**Q.** And the “Plasma Bumetanide Dibenzylamide concentration” value (SC, 15 mg, 0.5 h)?
**A.** The value was 2.76 ng/mL and 3.42 ng/mL and 1.81 ng/mL.

**Q.** What about the “Plasma Bumetanide Dibenzylamide concentration” value (SC, 15 mg, 0.5 h, mean) of the same molecule?
**A.** The value was 2.52 ng/mL.

**Q.** What about the “Plasma Bumetanide Dibenzylamide concentration” value (SC, 15 mg, 8 h) of the same molecule?
**A.** Its value is 4.54 ng/mL and 7.47 ng/mL and 4.14 ng/mL.

**Q.** And the “Plasma Bumetanide Dibenzylamide concentration” value (SC, 15 mg, 8 h, mean)?
**A.** The value was 5.71 ng/mL.

**Q.** And the “Plasma Bumetanide Dibenzylamide concentration” value (SC, 15 mg, 12 h)?
**A.** Its value is 3.35 ng/mL and 5.77 ng/mL and 3.22 ng/mL.

**Q.** What about the “Plasma Bumetanide Dibenzylamide concentration” value (SC, 15 mg, 12 h, mean) of the same molecule?
**A.** The value was 4.36 ng/mL.

**Q.** What about the “Plasma Bumetanide Dibenzylamide concentration” value (SC, 15 mg, 24 h) of the same molecule?
**A.** Its value is 2.43 ng/mL and 4.30 ng/mL and 2.90 ng/mL.

**Q.** What about the “Plasma Bumetanide Dibenzylamide concentration” value (SC, 15 mg, 24 h, mean) of the same molecule?
**A.** Its value is 3.33 ng/mL.

**Q.** And the AUClast (SC, 15 mg, mean)?
**A.** Its AUClast is 113 ng·h/mL.

**Q.** And the CL/F (SC, 15 mg, mean)?
**A.** The CL/F was 68.2 L/h.

**Q.** What about the t½ (SC, 15 mg, mean) of the same molecule?
**A.** The t½ was 24.8 h.

**Q.** And the CL/F (SL, 30 mg)?
**A.** The CL/F was 1690 L/h.

**Q.** And the Tmax (SL, 30 mg)?
**A.** Its Tmax is 1.00 h.

**Q.** And the Tmax (SL, 30 mg, mean)?
**A.** Its Tmax is 1.50 h.

**Q.** And the adverse reactions (all routes, 15 or 30 mg)?
**A.** Its adverse reactions is “no adverse reactions are noted”.

**Q.** What about the AUC(0-inf) (both sexes, Beagle, dog, plasma, 30 mg, IR) of the same molecule?
**A.** The AUC(0-inf) was 55.1 ng·h/mL.

**Q.** And the Cmax (both sexes, Beagle, dog, plasma, 30 mg, IR, 30 mg, read-out: mean Cmax)?
**A.** The Cmax was 8.44 ng/mL.

**Q.** What about the AUC(0-inf) (both sexes, Beagle, dog, plasma, 30 mg, SL) of the same molecule?
**A.** Its AUC(0-inf) is 17.7 ng·h/mL.

**Q.** And the Tmax (both sexes, Beagle, dog, plasma, 30 mg, SL, 30 mg, read-out: Tmax)?
**A.** The Tmax was 2 h.

**Q.** What about the half-life (both sexes, Beagle, dog, plasma, 30 mg, SL, 30 mg) of the same molecule?
**A.** Its half-life is 5.26 h.

**Q.** And the AUC(0-inf) (both sexes, Beagle, dog, plasma, inhaled or intranasal, 15 mg, IN)?
**A.** Its AUC(0-inf) is 211 ng·h/mL.

**Q.** What about the AUC(0-inf) [1] of the same molecule?
**A.** Its AUC(0-inf) is 814 ng·h/mL.

**Q.** And the AUC(0-t) [1]?
**A.** The AUC(0-t) was 956 ng·h/mL.

**Q.** What about the Cmax (both sexes, Beagle, dog, plasma, po, 30 mg, PO capsules, 30 mg, read-out: Cmax) of the same molecule?
**A.** The Cmax was 218 ng/mL.

**Q.** What about the Tmax (both sexes, Beagle, dog, plasma, po, 30 mg, PO capsules, 30 mg, read-out: Tmax) of the same molecule?
**A.** Its Tmax is 2 h.

**Q.** What about the half-life (both sexes, Beagle, dog, plasma, po, 30 mg, PO capsules, 30 mg) of the same molecule?
**A.** Its half-life is 5.89 h.

**Q.** What about the AUC(0-inf) [2] of the same molecule?
**A.** Its AUC(0-inf) is 231 ng·h/mL.

**Q.** And the AUC(0-t) [2]?
**A.** Its AUC(0-t) is 153 ng·h/mL.

**Q.** And the half-life (both sexes, Beagle, dog, plasma, sc, 15 mg, SC, 15 mg)?
**A.** Its half-life is 21.5 h.
